The target in test [1] is human Cav2.2 (Homo sapiens, UniProt Q00975). In words: Assessment of calcium channel activity using FLIPR (Ca2+ influx in IMR32 cells). It is filed as cell-based. The essentials:
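Human neuroblastoma IMR32 cells were seeded at 1−1.2×10^5 cells/well and cultured 48 h at 37 °C before FLIPR calcium influx measurement. Percent inhibition at each concentration was calculated against the no-inhibitor signal, and IC50 came from sigmoidal dose-response fits.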

In test [2] the test system is Sprague Dawley rats. In words: Analgesic effect against neuropathic pain, Bennett model (chronic constriction injury). It is filed as in vivo. The following applies: Rattus norvegicus, 1 h; 30 mg/kg po; mechanical allodynia 60 minutes after administration; CCI rats; read-out: % MPE. As for the experimental part: (iii) In Vivo Data—Determination of Analgesic Effect Against Neuropathic Pain—Bennett Model
Animals were prepared for testing, by use of a surgical procedure that induces neuropathic pain in one paw. IACUC guidelines for rodent survival surgery are followed. All surgical procedures are conducted on a clean, uncluttered surgical station. The area is wiped with a 70% ethanol solution before and after use. All instruments are sterilized by either autoclave or chemical sterilant (such as 2% glutaraldehyde >10 hr). Surgeons wear sterile gloves (for the initial procedure), clean lab coat or scrubs, hairnet or cap, and a half-mask respirator (when not working under a hood). Surgeons thoroughly wash their hands prior to donning sterile gloves. Gloves are disinfected in-between animals by cleansing with povidone iodine, chlorhexidine or 70% alcohol for at least 30 seconds. If multiple surgeries are performed, the instruments are cleaned and sterilized between procedures with hot glass beads (>10 seconds). To prevent thermal or chemical burns, the instruments are cooled by rinsing in sterile saline before use.
To minimize post-operative dehydration/maintain blood volume during the surgery, warmed sterile saline or Lactate Ringers solution at 10-15 mL/kg is administered subcutaneously immediately before or after surgery. This facilitates better renal function and presumably anesthesia product excretion post surgery. For all surgical procedures, anesthesia is induced with 4-5% isoflurane. Anesthesia is be maintained during surgery with 1-3% isoflurane. Following induction, the surgical site is carefully shaved and the exposed area is aseptically prepared with povidone-iodine scrub solution and 70% ethanol 2-3 times.
After site sterilization and anesthetic procedures outline above are completed, a 1.5 cm incision is made at the mid-thigh level to expose the biceps femoris and gluteous superficialis (right side), which are then separated by blunt dissection. The common sciatic nerve is exposed, isolated, and loosely ligated by four 5-0 chromic gut ligatures with <1 mm spacing between each. The surgical site is closed in layers—muscle is closed with 6.0 absorbable sutures, and the skin closed with wound clips. Animals are allowed to recover on a warming plate and are returned to their home cages when fully ambulatory. Animals are not be used for testing until at least 10 days following surgery.
Filament strengths used are: 0.4, 0.6, 1.0, 2, 4, 6, 8, and 15 g. […] Filaments are applied perpendicular to the mid-plantar paw surface with enough force to cause slight buckling and held in place for 6-8 seconds. Positive responses include an abrupt withdrawal of the paw from the stimulus or flinching behavior immediately following removal of the stimulus. The maximum force applied will be 15 g. […] All compounds were orally administered in 10% dimethyl sulfoxide/polyethylene glycol at a volume of 2.0 mL/kg, and mechanical allodynia was determined 60 minutes following compound administration. Data are reported as log g values and the percentage of maximum possible effect (% MPE) is calculated using log g values with the formula: % MPE=(log [observed PWT in grams]−log [mean PWT vehicle])/(log [15]−log [mean PWT vehicle])*100 All statistical procedures are run on log g values.

Setting [3] is: read-out: IC50 (μM) or percent inhibition (* indicates 3 minute incubation, otherwise 60 minute), IC50, 60 minute pre-incubation with compound, IMR32 cells, 80 mM KCl depolarization.

Where two headings read alike, the source gives them in different places. A value given as a limit tells only on which side of the number the result lay.

human Cav2.2, sequence (Q00975 whole entry): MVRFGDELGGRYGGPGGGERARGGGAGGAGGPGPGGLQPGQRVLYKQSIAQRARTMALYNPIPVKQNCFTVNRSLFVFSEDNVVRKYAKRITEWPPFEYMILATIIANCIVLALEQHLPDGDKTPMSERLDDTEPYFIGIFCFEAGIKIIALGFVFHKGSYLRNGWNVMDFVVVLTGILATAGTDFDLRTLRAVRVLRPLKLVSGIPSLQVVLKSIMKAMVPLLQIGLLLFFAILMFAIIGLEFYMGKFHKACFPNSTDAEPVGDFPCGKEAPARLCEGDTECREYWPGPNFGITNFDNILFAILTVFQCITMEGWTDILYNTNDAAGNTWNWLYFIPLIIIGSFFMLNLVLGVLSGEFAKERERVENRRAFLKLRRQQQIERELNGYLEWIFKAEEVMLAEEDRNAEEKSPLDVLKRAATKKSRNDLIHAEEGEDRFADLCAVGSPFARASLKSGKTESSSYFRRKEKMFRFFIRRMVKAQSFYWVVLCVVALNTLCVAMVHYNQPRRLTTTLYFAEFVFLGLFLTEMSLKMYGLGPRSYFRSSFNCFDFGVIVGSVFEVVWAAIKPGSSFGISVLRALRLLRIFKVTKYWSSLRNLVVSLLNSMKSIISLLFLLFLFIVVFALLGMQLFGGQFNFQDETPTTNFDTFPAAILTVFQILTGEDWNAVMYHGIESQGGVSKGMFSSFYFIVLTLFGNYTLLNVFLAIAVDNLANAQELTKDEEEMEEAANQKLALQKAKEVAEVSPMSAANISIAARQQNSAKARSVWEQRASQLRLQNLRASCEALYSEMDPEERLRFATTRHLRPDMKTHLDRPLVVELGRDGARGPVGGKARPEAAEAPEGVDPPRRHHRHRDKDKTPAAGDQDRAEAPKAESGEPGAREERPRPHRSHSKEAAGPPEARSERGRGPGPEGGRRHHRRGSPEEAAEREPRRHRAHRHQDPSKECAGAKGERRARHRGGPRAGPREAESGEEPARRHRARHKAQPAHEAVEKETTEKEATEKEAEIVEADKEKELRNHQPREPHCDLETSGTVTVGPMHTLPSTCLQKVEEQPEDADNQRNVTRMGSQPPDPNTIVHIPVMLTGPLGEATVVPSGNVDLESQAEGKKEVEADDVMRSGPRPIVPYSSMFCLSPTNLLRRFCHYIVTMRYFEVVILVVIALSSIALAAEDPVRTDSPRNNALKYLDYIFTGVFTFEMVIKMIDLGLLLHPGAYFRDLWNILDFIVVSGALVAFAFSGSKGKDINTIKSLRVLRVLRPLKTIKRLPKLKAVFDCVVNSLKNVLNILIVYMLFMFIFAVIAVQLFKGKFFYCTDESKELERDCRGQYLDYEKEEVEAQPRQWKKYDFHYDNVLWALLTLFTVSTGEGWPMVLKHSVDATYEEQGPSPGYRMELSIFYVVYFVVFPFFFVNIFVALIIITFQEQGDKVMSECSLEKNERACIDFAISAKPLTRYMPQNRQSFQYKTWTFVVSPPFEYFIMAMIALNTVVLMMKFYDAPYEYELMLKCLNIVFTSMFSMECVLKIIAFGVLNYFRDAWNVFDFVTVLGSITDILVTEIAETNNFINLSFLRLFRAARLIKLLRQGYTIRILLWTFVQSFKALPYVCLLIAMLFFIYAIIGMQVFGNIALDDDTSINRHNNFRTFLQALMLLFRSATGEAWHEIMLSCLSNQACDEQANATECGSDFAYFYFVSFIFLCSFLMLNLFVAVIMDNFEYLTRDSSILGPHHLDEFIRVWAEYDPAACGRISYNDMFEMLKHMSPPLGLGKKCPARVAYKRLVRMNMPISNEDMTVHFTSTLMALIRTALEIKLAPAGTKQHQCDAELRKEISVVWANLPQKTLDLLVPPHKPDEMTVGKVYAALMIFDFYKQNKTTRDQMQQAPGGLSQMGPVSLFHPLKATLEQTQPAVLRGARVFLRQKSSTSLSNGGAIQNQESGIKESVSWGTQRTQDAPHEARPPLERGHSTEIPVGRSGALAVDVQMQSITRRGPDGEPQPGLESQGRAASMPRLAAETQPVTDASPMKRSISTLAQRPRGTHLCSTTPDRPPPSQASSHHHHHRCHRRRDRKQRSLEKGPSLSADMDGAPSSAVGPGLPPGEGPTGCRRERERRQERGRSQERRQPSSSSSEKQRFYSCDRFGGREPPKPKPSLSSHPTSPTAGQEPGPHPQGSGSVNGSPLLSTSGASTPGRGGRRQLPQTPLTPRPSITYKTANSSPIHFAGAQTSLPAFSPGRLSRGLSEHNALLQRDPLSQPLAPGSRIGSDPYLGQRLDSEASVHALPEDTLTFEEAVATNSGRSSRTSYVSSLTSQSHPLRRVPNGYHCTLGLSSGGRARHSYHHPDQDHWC
human Cav2.2, sequence (P54289 25-956 partner limits assumed): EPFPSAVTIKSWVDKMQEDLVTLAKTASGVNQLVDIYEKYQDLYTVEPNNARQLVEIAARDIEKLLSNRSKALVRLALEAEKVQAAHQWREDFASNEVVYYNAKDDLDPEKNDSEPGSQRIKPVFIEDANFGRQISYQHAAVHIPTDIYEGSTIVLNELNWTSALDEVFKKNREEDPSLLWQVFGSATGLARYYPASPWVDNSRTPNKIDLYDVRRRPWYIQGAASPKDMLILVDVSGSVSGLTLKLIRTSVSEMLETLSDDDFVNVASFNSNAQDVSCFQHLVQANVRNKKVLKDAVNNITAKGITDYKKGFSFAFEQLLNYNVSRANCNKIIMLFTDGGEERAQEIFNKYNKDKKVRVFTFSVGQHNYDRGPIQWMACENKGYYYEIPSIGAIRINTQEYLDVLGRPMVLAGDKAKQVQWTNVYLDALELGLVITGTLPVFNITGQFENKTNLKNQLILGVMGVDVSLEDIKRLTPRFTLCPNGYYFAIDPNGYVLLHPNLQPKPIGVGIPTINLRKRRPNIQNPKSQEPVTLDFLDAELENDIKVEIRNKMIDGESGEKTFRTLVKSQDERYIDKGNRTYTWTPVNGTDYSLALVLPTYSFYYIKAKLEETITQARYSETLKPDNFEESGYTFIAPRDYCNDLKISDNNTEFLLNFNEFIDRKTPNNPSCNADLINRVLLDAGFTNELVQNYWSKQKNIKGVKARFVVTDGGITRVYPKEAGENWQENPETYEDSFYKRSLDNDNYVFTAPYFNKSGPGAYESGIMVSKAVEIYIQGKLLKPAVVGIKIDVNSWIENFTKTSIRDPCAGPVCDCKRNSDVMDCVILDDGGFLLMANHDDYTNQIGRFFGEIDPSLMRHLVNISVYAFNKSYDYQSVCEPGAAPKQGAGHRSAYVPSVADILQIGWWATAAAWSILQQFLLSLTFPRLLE
human Cav2.2, sequence (P54289 957-1103 partner limits assumed): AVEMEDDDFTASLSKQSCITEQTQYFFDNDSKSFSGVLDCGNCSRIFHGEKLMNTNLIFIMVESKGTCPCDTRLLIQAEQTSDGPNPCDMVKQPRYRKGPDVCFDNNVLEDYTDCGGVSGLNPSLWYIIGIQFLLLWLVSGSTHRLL
human Cav2.2, sequence (P54284 whole entry partner): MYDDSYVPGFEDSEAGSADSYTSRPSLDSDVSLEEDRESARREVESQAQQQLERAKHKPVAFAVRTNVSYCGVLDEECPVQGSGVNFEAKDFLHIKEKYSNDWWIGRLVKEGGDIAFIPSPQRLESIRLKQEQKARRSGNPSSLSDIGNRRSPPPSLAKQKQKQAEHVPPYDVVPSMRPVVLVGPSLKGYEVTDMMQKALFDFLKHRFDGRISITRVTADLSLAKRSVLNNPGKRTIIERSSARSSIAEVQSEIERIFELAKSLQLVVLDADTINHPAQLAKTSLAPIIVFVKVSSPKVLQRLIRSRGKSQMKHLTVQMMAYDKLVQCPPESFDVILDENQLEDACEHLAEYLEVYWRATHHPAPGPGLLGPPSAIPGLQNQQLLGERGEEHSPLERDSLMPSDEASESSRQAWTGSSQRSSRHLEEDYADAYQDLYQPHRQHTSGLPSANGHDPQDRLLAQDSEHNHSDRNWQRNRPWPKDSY

Take `CC(C)(C)[C@H](O)C(=O)N[C@H]1CC[C@@H]2CN(c3cccc(C(F)(F)F)n3)C[C@@H]21` [Example 580, (2S)-2-hydroxy-3,3-dimethyl-N-{(3aR,4S,6aS)-2-[6-(trifluoromethyl)pyridin-2-yl]octahydrocyclopenta[c]pyrrol-4-yl}butanamide]: in test [1], the IC50 was 1.88 µM. For the same molecule, in test [2], the inhibition in vivo at 30 mg/kg was 5%.

In the case of `CN[C@@H](CC(C)C)C(=O)N[C@H]1CC[C@@H]2CN(c3ccc(C(F)(F)F)cc3)C[C@@H]21` [Example 608, N^2-methyl-N-{(3aR,4S,6aS)-2-[4-(trifluoromethyl)phenyl]octahydrocyclopenta[c]pyrrol-4-yl}-L-leucinamide], the IC50 in test [1] was determined as 1.65 µM. In addition, the inhibition in vivo at 30 mg/kg in test [2] is 79%.

Regarding `Fc1ccc2[nH]c(CN[C@H]3CC[C@@H]4CN(c5cccc(C(F)(F)F)n5)C[C@@H]43)cc2c1` [Example 613, (3aR,4S,6aS)-N-[(5-fluoro-1H-indol-2-yl)methyl]-2-[6-(trifluoromethyl)pyridin-2-yl]octahydrocyclopenta[c]pyrrol-4-amine], in test [1], the IC50 was 0.91 µM. In addition, the inhibition in vivo at 30 mg/kg in test [2] came out at 61%.

For the molecule `CN[C@@H](CC(C)C)C(=O)N[C@H]1CC[C@@H]2CN(c3ccc(OC(F)(F)F)cc3)C[C@@H]21` [Example 624, N^2-methyl-N-{(3aR,4S,6aS)-2-[4-(trifluoromethoxy)phenyl]octahydrocyclopenta[c]pyrrol-4-yl}-L-leucinamide], the half-inhibitory concentration (IC50) in test [1] was found to be 4.91 µM. Further, the inhibition in vivo at 30 mg/kg in test [2] was 85%.

With `CN[C@@H](CC(C)C)C(=O)N[C@H]1CC[C@@H]2CN(c3cccc(OC(F)(F)F)c3)C[C@@H]21` [Example 625, N^2-methyl-N-{(3aR,4S,6aS)-2-[3-(trifluoromethoxy)phenyl]octahydrocyclopenta[c]pyrrol-4-yl}-L-leucinamide], the IC50 in test [1] was 1.42 µM. Besides, in test [2], the inhibition in vivo at 30 mg/kg was found to be 42%.

Regarding `O=C(N[C@H]1CC[C@@H]2CN(c3cccc(OC(F)(F)F)c3)C[C@@H]21)[C@@H]1C[C@@H](F)CN1` [Example 627, (4R)-4-fluoro-N-{(3aR,4S,6aS)-2-[3-(trifluoromethoxy)phenyl]octahydrocyclopenta[c]pyrrol-4-yl}-L-prolinamide], the IC50 in test [1] was determined as 2.71 µM. The inhibition in vivo at 30 mg/kg in test [2] amounted to 54%.

Turning to `CCC[C@H](NC)C(=O)N[C@H]1CC[C@@H]2CN(c3cccc(OC(F)(F)F)c3)C[C@@H]21` [Example 718, N^2-methyl-N-{(3aR,4S,6aS)-2-[3-(trifluoromethoxy)phenyl]octahydrocyclopenta[c]pyrrol-4-yl}-L-norvalinamide], the IC50 in test [1] came to 1.3 µM. Besides, in test [2], the inhibition in vivo at 30 mg/kg amounted to 29%.

Regarding `CN[C@@H](CC(C)C)C(=O)N[C@H]1CC[C@@H]2CN(c3nccc(C(F)(F)F)n3)C[C@@H]21` [Example 722, N^2-methyl-N-{(3aR,4S,6aS)-2-[4-(trifluoromethyl)pyrimidin-2-yl]octahydrocyclopenta[c]pyrrol-4-yl}-L-leucinamide], the IC50 in test [1] is 2.53 µM. Also, the inhibition in vivo at 30 mg/kg in test [2] worked out at 8%.

As for `CN[C@@H](CC(C)C)C(=O)N[C@H]1CC[C@@H]2CN(c3ccc(F)c(OC(F)(F)F)c3)C[C@@H]21` [Example 772, N-{(3aR,4S,6aS)-2-[4-fluoro-3-(trifluoromethoxy)phenyl]octahydrocyclopenta[c]pyrrol-4-yl}-N^2-methyl-L-leucinamide], the IC50 in test [1] was 1.08 µM.

Consider `CN[C@@H](CC(C)C)C(=O)N[C@H]1CC[C@@H]2CN(c3ccc(F)c(Cl)c3)C[C@@H]21` [Example 773, N-[(3aR,4S,6aS)-2-(3-chloro-4-fluorophenyl)octahydrocyclopenta[c]pyrrol-4-yl]-N^2-methyl-L-leucinamide], for which the IC50 in test [1] was 1.79 µM.

With `CN[C@@H](CC(C)C)C(=O)N[C@H]1CC[C@@H]2CN(c3ccc(OC(F)(F)F)cc3F)C[C@@H]21` [Example 774, N-{(3aR,4S,6aS)-2-[2-fluoro-4-(trifluoromethoxy)phenyl]octahydrocyclopenta[c]pyrrol-4-yl}-N^2-methyl-L-leucinamide], in test [1], the IC50 came out at 1.15 µM.

As to `CN[C@@H](CC1CC1)C(=O)N[C@H]1CC[C@@H]2CN(c3ccc(OC(F)(F)F)cc3)C[C@@H]21` [Example 775, 3-cyclopropyl-N^2-methyl-N-{(3aR,4S,6aS)-2-[4-(trifluoromethoxy)phenyl]octahydrocyclopenta[c]pyrrol-4-yl}-L-alaninamide], in test [1], the IC50 was 2.77 µM.

`N[C@@H](CC1CC1)C(=O)N[C@H]1CC[C@@H]2CN(c3ccc(OC(F)(F)F)cc3)C[C@@H]21` [Example 776, 3-cyclopropyl-N-{(3aR,4S,6aS)-2-[4-(trifluoromethoxy)phenyl]octahydrocyclopenta[c]pyrrol-4-yl}-L-alaninamide]: the IC50 in test [1] turned out to be 2.53 µM.

Consider `CN(C)[C@@H](CC1CC1)C(=O)N[C@H]1CC[C@@H]2CN(c3ccc(OC(F)(F)F)cc3)C[C@@H]21` [Example 777, 3-cyclopropyl-N^2,N^2-dimethyl-N-{(3aR,4S,6aS)-2-[4-(trifluoromethoxy)phenyl]octahydrocyclopenta[c]pyrrol-4-yl}-L-alaninamide], for which the IC50 in test [1] stood at 2.16 µM.

Turning to `CC(C)(C)NC(=O)N[C@H]1CC[C@@H]2CN(c3ccc(OC(F)(F)F)cc3)C[C@@H]21` [Example 778, 1-tert-butyl-3-{(3aR,4S,6aS)-2-[4-(trifluoromethoxy)phenyl]octahydrocyclopenta[c]pyrrol-4-yl}urea], the IC50 in test [1] turned out to be 4.27 µM.

Regarding `CC(C)(C)NC(=O)N[C@H]1CC[C@@H]2CN(c3cccc(OC(F)(F)F)c3)C[C@@H]21` [Example 779, 1-tert-butyl-3-{(3aR,4S,6aS)-2-[3-(trifluoromethoxy)phenyl]octahydrocyclopenta[c]pyrrol-4-yl}urea], in test [1], the IC50 was 1.86 µM.

With `O=C(N[C@H]1CC[C@@H]2CN(c3ccc(C(F)(F)F)cn3)C[C@@H]21)[C@@H]1C[C@@H](F)CN1` [Example 780, (4R)-4-fluoro-N-{(3aR,4S,6aS)-2-[5-(trifluoromethyl)pyridin-2-yl]octahydrocyclopenta[c]pyrrol-4-yl}-L-prolinamide], in test [1], the IC50 was 14 µM.

On to `O=C(N[C@H]1CC[C@@H]2CN(c3ccc(C(F)(F)F)cc3)C[C@@H]21)[C@@H]1C[C@@H](F)CN1` [Example 781, (4R)-4-fluoro-N-{(3aR,4S,6aS)-2-[4-(trifluoromethyl)phenyl]octahydrocyclopenta[c]pyrrol-4-yl}-L-prolinamide], for which the IC50 in test [1] stood at 8.26 µM.

In the case of “(3aR,4S,6aS)-N-(1H-pyrrolo[2,3-b]pyridin-2-ylmethyl)-2-[6-(trifluoromethyl)pyridin-2-yl]octahydrocyclopenta[c]pyrrol-4-amine [Example 693]”, in test [1] (setting [3]), the IC50 came out at 1.42 µM.

Turning to “(3aR,4S,6aS)-N-[(4-chloro-1H-indol-3-yl)methyl]-2-[6-(trifluoromethyl)pyridin-2-yl]octahydrocyclopenta[c]pyrrol-4-amine [Example 692]”, the IC50 in test [1] (setting [3]) is 0.99 µM.

“(3aR,4S,6aS)-N-[(5-fluoro-1-methyl-1H-indol-2-yl)methyl]-2-[6-(trifluoromethyl)pyridin-2-yl]octahydrocyclopenta[c]pyrrol-4-amine [Example 748]”: the IC50 in test [1] (setting [3]) was determined as 0.81 µM.

Consider “N-(tert-butoxycarbonyl)-N-((3aR,4S,6aS)-2-{[3-(trifluoromethyl)phenyl]sulfonyl}octahydrocyclopenta[c]pyrrol-4-yl)-L-phenylalaninamide [Example 269]”, for which the IC50 in test [1] (setting [3]) was 1.9 µM.

Turning to “N-methyl-N-((3aR,4S,6aS)-2-{[3-(trifluoromethyl)phenyl]sulfonyl}octahydrocyclopenta[c]pyrrol-4-yl)-L-phenylalaninamide [Example 386]”, the IC50 in test [1] (setting [3]) turned out to be 1.62 µM.

For “N^1-[(3aR,4S,6aS)-2-(4-fluorobenzyl)octahydrocyclopenta[c]pyrrol-4-yl]-N^2-methyl-L-norvalinamide [Example 378]”, the IC50 in test [1] (setting [3]) was greater than 30 µM.

As for “N^2-isopropyl-4-methyl-N^1-{(3aR,4S,6aS)-2-[2-(methylsulfonyl)pyrimidin-5-yl]octahydrocyclopenta[c]pyrrol-4-yl}-L-leucinamide [Example 493]”, the IC50 in test [1] (setting [3]) was found to be 5.08 µM.

Values taken from US8691865B2 (AbbVie Inc., priority 2008, dated 2014).
